Where two headings read alike, the source gives them in different places.
Legend:
[1] = tested on: HCV genotype 1b (Con1) replicon in HUH-7 cells; test: HCV replicon luciferase reporter assay, genotype 1b; assay type: cell-based; conditions: Hepatitis C virus, Huh-7, 72 h, 3 days incubation
Outline: (§1)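 Replicon inhibition for both genotypes was measured as Renilla luciferase signal (EnduRen, 7.5 μM final, 2 h) after 3-day, 37° C exposure of replicon-bearing HUH-7 cells in 4% FCS DMEM, 0.5% DMSO. The 1b construct carries S1179I; the 1a H77 construct carries P1496L and S2204I. Twenty-point, 3-fold dilutions were fitted four-parametrically for EC50, and CC50 was taken from multiplexed Cell Titer-Blue.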

[2] = tested on: HCV genotype 1a (H77 strain) replicon in HUH-7 cells; test: HCV replicon luciferase reporter assay, genotype 1a; assay type: cell-based; conditions: Hepatitis C virus, Huh-7, 72 h, 3 days incubation
Outline: as §1

[3] = HCV genotype 1b replicon luciferase, read-out: LE_1b (EC50, range)
[4] = HCV genotype 1a replicon luciferase, read-out: LE_1a (EC50, range)
[5] = HCV genotype 1b replicon luciferase assay, range class, read-out: LE_1b (EC50, range)
[6] = HCV genotype 1a replicon luciferase assay, range class, read-out: LE_1a (EC50, range)
[7] = GETYPE1B, HCV genotype 1b replicon luciferase, read-out: LE_1b (EC50, range)
[8] = GETYPE1A, HCV genotype 1a replicon luciferase, read-out: LE_1a (EC50, range)

Row | Compound | EC50 [1, 3] [nM] | EC50 [2, 4] [nM] | EC50 [1, 5] [nM] | EC50 [2, 6] [nM] | further results
1 | CCOc1nnc(O[C@@H]2C[C@H]3C(=O)N[C@]4(C(=O)NS(=O)(=O)C5(C)CC5)C[C@H]4/C=C\CC[C@H](C)C[C@@H](C)[C@H](NC(=O)OC(C)(C)C(F)(F)F)C(=O)N3C2)c2ccccc12 [Compound 5030, 1,1,1-trifluoro-2-methylpropan-2-yl((2R,6S,7R,9S,13aS,14aR,16aS,Z)-2-((4-ethoxyphthalazin-1-yl)oxy)-7,9-dimethyl-14a-(((1-methylcyclopropyl)sulfonyl)carbamoyl)-5,16-dioxo-1,2,3,5,6,7,8,9,10,11,13a,14,14a,15,16,16a-hexadecahydrocyclopropa[e]pyrrolo[1,2-a][1,4]diazacyclopentadecin-6-yl)carbamate] | 4.82 to 103 | 4.82 to 103 | – | – | –
2 | [2H]C([2H])([2H])C(OC(=O)N[C@@H]1C(=O)N2C[C@H](Oc3nc(N4CCOCC4)cc4cc(OC)ccc34)C[C@H]2C(=O)N[C@]2(C(=O)NS(=O)(=O)C3CC3)C[C@H]2/C=C\CC[C@H](C)C[C@H]1C)(C([2H])([2H])[2H])C(F)(F)F [Compound 3100, 1,1,1,3,3,3-hexadeutero-2-(trifluoromethyl)propan-2-yl((2R,6S,7R,9S,13aS,14aR,16aS,Z)-14a-((cyclopropylsulfonyl)carbamoyl)-2-((6-methoxy-3-morpholinoisoquinolin-1-yl)oxy)-7,9-dimethyl-5,16-dioxo-1,2,3,5,6,7,8,9,10,11,13a,14,14a,15,16,16a-hexadecahydrocyclopropa[e]pyrrolo[1,2-a][1,4]diazacyclopentadecin-6-yl)carbamate] | – | – | < 5.46 | < 5.46 | –
3 | CCn1nc(O[C@@H]2C[C@H]3C(=O)N[C@]4(C(=O)NS(=O)(=O)C5(C)CC5)C[C@H]4/C=C\CC[C@H](C)C[C@@H](C)[C@H](NC(=O)OC(C)(C)C)C(=O)N3C2)c2ccccc2c1=O [Compound 5064, tert-butyl ((2R,6S,7R,9S,13aS,14aR,16aS,Z)-2-((3-ethyl-4-oxo-3,4-dihydrophthalazin-1-yl)oxy)-7,9-dimethyl-14a-(((1-methylcyclopropyl)sulfonyl)carbamoyl)-5,16-dioxo-1,2,3,5,6,7,8,9,10,11,13a,14,14a,15,16,16a-hexadecahydrocyclopropa[e]pyrrolo[1,2-a][1,4]diazacyclopentadecin-6-yl)carbamate] | 4.82 to 103 | > 87.4 | – | – | –
4 | CC[C@@H]1C[C@H](C)CC/C=C\[C@@H]2C[C@@]2(C(=O)NS(=O)(=O)C2(C)CC2)NC(=O)[C@@H]2C[C@@H](Oc3cc(OC)nc4cc(OC)ccc34)CN2C(=O)[C@H]1NC(=O)OC(C)(C)C(C)(F)F [Compound 1210] | – | – | – | – | EC50 [1, 7]: 0.51 to 1 nM; EC50 [2, 8]: 1.01 to 5 nM
5 | COc1cnc(O[C@@H]2C[C@H]3C(=O)N[C@]4(C(=O)NS(=O)(=O)C5(CF)CC5)C[C@H]4/C=C\CC[C@H](C)C[C@@H](C)[C@H](NC(=O)OC4(C(F)(F)F)CCCOC4)C(=O)N3C2)c2ccccc12 (stereo partly drawn) [Compound 1057, 3-(trifluoromethyl)tetrahydro-2H-pyran-3-yl((2R,6S,7R,9S,13aS,14aR,16aS,Z)-14a-(((1-(fluoromethyl)cyclopropyl)sulfonyl)carbamoyl)-2-((4-methoxyisoquinolin-1-yl)oxy)-7,9-dimethyl-5,16-dioxo-1,2,3,5,6,7,8,9,10,11,13a,14,14a,15,16,16a-hexadecahydrocyclopropa[e]pyrrolo[1,2-a][1,4]diazacyclopentadecin-6-yl)carbamate] | – | – | < 5.46 | < 5.46 | –
6 | CC[C@@H]1C[C@H](C)CC/C=C\[C@@H]2C[C@@]2(C(=O)NS(=O)(=O)C2(C)CC2)NC(=O)[C@@H]2C[C@@H](Oc3ncc(Cl)c4ccc(OC)cc34)CN2C(=O)[C@H]1NC(=O)OC(C)(C)C [Compound 4381] | 0.51 to 1 | 1.01 to 5 | – | – | –
7 | COc1cccc2c(O[C@@H]3C[C@H]4C(=O)N[C@]5(C(=O)NS(=O)(=O)C6(C)CC6)C[C@H]5/C=C\CC[C@@H](C)C[C@@H](C)[C@H](NC(=O)OC(C)(C)C)C(=O)N4C3)nccc12 [Compound 3036, tert-butyl ((2R,6S,7R,9R,13aS,14aR,16aS,Z)-2-((5-methoxyisoquinolin-1-yl)oxy)-7,9-dimethyl-14a-(((1-methylcyclopropyl)sulfonyl)carbamoyl)-5,16-dioxo-1,2,3,5,6,7,8,9,10,11,13a,14,14a,15,16,16a-hexadecahydrocyclopropa[e]pyrrolo[1,2-a][1,4]diazacyclopentadecin-6-yl)carbamate] | – | – | < 5.46 | < 5.46 | –
8 | [2H]C([2H])([2H])C(C)(OC(=O)N[C@@H]1C(=O)N2C[C@H](Oc3nccc4cc(OC(C)C)ccc34)C[C@H]2C(=O)N[C@]2(C(=O)NS(=O)(=O)C3(C)CC3)C[C@H]2/C=C\CC[C@@H](C)C[C@H]1C)C([2H])([2H])[2H] [Compound 5165] | < 5.46 | < 5.46 | – | – | –
9 | COc1ccc2c(O[C@@H]3C[C@H]4C(=O)N[C@]5(C(=O)NS(=O)(=O)C6(F)CC6)C[C@H]5/C=C\CC[C@@H](C)C[C@@H](C)[C@H](NC(=O)OC(C)C)C(=O)N4C3)nccc2c1 [Compound 4016] | < 5.46 | < 5.46 | – | – | –
10 | COc1ccc2nc(C)c(O[C@@H]3C[C@H]4C(=O)N[C@]5(C(=O)NS(=O)(=O)C6(C)CC6)C[C@H]5/C=C\CC[C@@H](C)C[C@@H](C)[C@H](NC(=O)OC(C)(C)C(F)(F)F)C(=O)N4C3)nc2c1 [Compound 4366] | – | – | – | – | EC50 ([1]; GETYPE1B, HCV genotype 1b replicon luciferase, read-out: LE_1b (EC50)): 0.25 nM; EC50 [1, 7]: 0.1 to 0.5 nM; EC50 ([2]; GETYPE1A, HCV genotype 1a replicon luciferase, read-out: LE_1a (EC50)): 0.58 nM; EC50 [2, 8]: 0.51 to 1 nM
11 | C[C@@H]1CC/C=C\[C@@H]2C[C@@]2(C(=O)NS(=O)(=O)C2(C)CC2)NC(=O)[C@@H]2C[C@@H](Oc3nc(OCC(F)F)cc4c(Cl)cccc34)CN2C(=O)[C@@H](NC(=O)O[C@H](C)C(F)(F)F)[C@H](C)C1 [Compound 1108, (R)-1,1,1-trifluoropropan-2-yl ((2R,6S,7R,9R,13aS,14aR,16aS,Z)-2-((5-chloro-3-(2,2-difluoroethoxyl)isoquinolin-1-yl)oxy)-7,9-dimethyl-14a-(((1-methylcyclopropyl)sulfonyl)carbamoyl)-5,16-dioxo-1,2,3,5,6,7,8,9,10,11,13a,14,14a,15,16,16a-hexadecahydrocyclopropa[e]pyrrolo[1,2-a][1,4]diazacyclopentadecin-6-yl)carbamate] | – | – | < 5.46 | < 5.46 | –
12 | COc1cnc(O[C@@H]2C[C@H]3C(=O)N[C@]4(C(=O)NS(=O)(=O)C5CC5)C[C@H]4/C=C\CC[C@H](C)C[C@@H](C)[C@H](NC(=O)OC(C)(C)C)C(=O)N3C2)c2cc(Cl)ccc12 [Compound 1208, tert-butyl ((2R,6S,7R,9S,13aS,14aR,16aS,Z)-2-((7-chloro-4-methoxyisoquinolin-1-yl)oxy)-14a-((cyclopropylsulfonyl)carbamoyl)-7,9-dimethyl-5,16-dioxo-1,2,3,5,6,7,8,9,10,11,13a,14,14a,15,16,16a-hexadecahydrocyclopropa[e]pyrrolo[1,2-a][1,4]diazacyclopentadecin-6-yl)carbamate] | 1.01 to 5 | 5.01 to 35 | – | – | –
13 | CCCOc1cc2c(Cl)cccc2c(O[C@@H]2C[C@H]3C(=O)N[C@]4(C(=O)NS(=O)(=O)C5CC5)C[C@H]4/C=C\CC[C@H](C)C[C@@H](C)[C@H](NC(=O)OC(C)(C)C)C(=O)N3C2)n1 [Compound 1069, tert-butyl ((2R,6S,7R,9S,13aS,14aR,16aS,Z)-2-((5-chloro-3-propoxyisoquinolin-1-yl)oxy)-14a-((cyclopropylsulfonyl)carbamoyl)-7,9-dimethyl-5,16-dioxo-1,2,3,5,6,7,8,9,10,11,13a,14,14a,15,16,16a-hexadecahydrocyclopropa[e]pyrrolo[1,2-a][1,4]diazacyclopentadecin-6-yl)carbamate] | – | – | < 5.46 | < 5.46 | –
14 | CCOc1cnc(O[C@@H]2C[C@H]3C(=O)N[C@]4(C(=O)NS(=O)(=O)C5(CF)CC5)C[C@H]4/C=C\CC[C@@H](C)C[C@@H](C)[C@H](NC(=O)OC(C)(C)C(C)(F)F)C(=O)N3C2)c2ccccc12 [Compound 5355] | – | – | – | – | EC50 [1, 7]: 1.01 to 5 nM; EC50 [2, 8]: 1.01 to 5 nM
15 | COc1ccc2c(O[C@@H]3C[C@H]4C(=O)N[C@]5(C(=O)NS(=O)(=O)C6(F)CC6)C[C@H]5/C=C\CC[C@@H](C)C[C@@H](C)[C@H](NC(=O)OCC(C)(C)C)C(=O)N4C3)nccc2c1 [Compound 4022] | < 5.46 | < 5.46 | – | – | –
16 | COc1ccc2c(O[C@@H]3C[C@H]4C(=O)N[C@]5(C(=O)NS(=O)(=O)C6(C)CC6)C[C@H]5/C=C\CC[C@H](C)C[C@@H](C)[C@H](NC(=O)OC(C)(C)C)C(=O)N4C3)nc(-c3ccc(OC(C)C)c(F)c3)cc2c1 [Compound 3061, tert-butyl ((2R,6S,7R,9S,13aS,14aR,16aS,Z)-2-((3-(3-fluoro-4-isopropoxyphenyl)-6-methoxyisoquinolin-1-yl)oxy)-7,9-dimethyl-14a-(((1-methylcyclopropyl)sulfonyl)carbamoyl)-5,16-dioxo-1,2,3,5,6,7,8,9,10,11,13a,14,14a,15,16,16a-hexadecahydrocyclopropa[e]pyrrolo[1,2-a][1,4]diazacyclopentadecin-6-yl)carbamate] | – | – | < 5.46 | 4.82 to 103 | –
